Results from patent publication US20100056791A1, “Pyrazolopyridine carboxamide derivative and phosphodiesterase (pde) inhibitor containing the same” (priority 2006, published 2010).

What was measured:
[1] = test system: LPS-induced leukocytes in bronchoalveolar lavage fluid; experiment: LPS acute inflammation model in rats (total leukocytes in BALF); assay type: in vivo; settings: 1 mg/kg orally one hour before LPS inhalation, total leukocytes in BALF 3 hours after LPS
Procedure: 1 mg/kg of the compounds were orally administered to rats one hour before inhalation of lipopolysaccharide (LPS) from E. coli serotype 055:B5, rats were inhaled nebulizing LPS solution (50 mL) by nebulizer for 30 minutes. Then, 3 hours after the LPS inhalation, the rats were euthanized with 20% urethane (5 ml/rat, i.p.). 5 ml of physiological saline for bronchoalveolar lavage was injected into the bronchial tubes and alveoli through the airway, and the bronchial tubes and alveoli were washed 3 times using a 5 mL syringe. This procedure was repeated twice, and the solution was collected as bronchoalveolar lavage fluid (BALF). The collected BALF was centrifuged at 1,200 rpm and […] for 10 minutes (Hirtachi; himac CR 5 DL). The sediment was re-suspended in 10 mL of a 0.1% bovine serum albumin-physiological saline, and an equivalent amount of Turk's solution was added to the suspension to stain leukocytes. The total number of leukocytes was counted under a microscope to determine the inhibition ratio. When the inhibition ratio≧60%, the results were represented by “++.” When 60%>the inhibition ratio≧50%, the results were represented by “+.”

[2] = test system: histamine-induced bronchoconstriction; experiment: Histamine-induced airway contraction reaction in guinea pigs; assay type: in vivo; settings: Cavia porcellus, iv, 0.5 min, i.v., 30 seconds after administration, read-out: Inhibition ratio; for inhibition in vivo at 0.1 mg/kg: 0.1 mg/kg administration (not in brackets); for inhibition in vivo at 0.3 mg/kg: 0.3 mg/kg administration (results in brackets)
Procedure: Guinea pigs were anesthetized with pentobarbital (30 mg/kg, i.p.). A cannula for intravenous administration, a cannula for collecting blood and measuring blood pressure, and a tracheal cannula were inserted into the left external jugular vein, right internal carotid artery, and trachea, respectively. The guinea pigs were maintained on artificial respiration under the conditions of 60 times/min and 10 mL/kg/stroke. The airflow from the side branch of the tracheal cannula was measured by a bronchospasm transducer (Ugo-Basile) and recorded on a computer via Power Lab (ADInstruments Japan). The guinea pigs were immobilized with gallamine (10 mg/kg, i.v.), and histamine was administered at 10-minute intervals (12.5 μg/kg, i.v.). […] We examined the inhibitory action of test compounds on histamine-induced bronchoconstriction 30 seconds after compounds administration. Bronchoconstriction was recorded as the amount of airflow, and the results were represented by the ratio of the maximum value of the histamine-induced airflow 30 seconds after the administration to the maximum value of the airflow before the administration. When the inhibition ratio≧90%, the results were represented by “+++.” When 90%>the inhibition ratio≧70%, the results were represented by “++.” When 70%>the inhibition ratio≧30%, the results were represented by “+.” The results shown in brackets are for 0.3 mg/kg administration, and the other results are for 0.1 mg/kg administration.

[3] = target: T1, PDE4B catalytic domain (PDE4Bcat) (Homo sapiens, UniProt Q07343); experiment: Phosphodiesterase inhibitory activity ([3H]cAMP breakdown, recombinant PDE4Bcat); assay type: biochemical; settings: 30° C. 20 minutes, read-out: IC50(μmol/L) PDE4
T1 construct: The cDNA of PDE4B catalytic domain (hereinafter abbreviated as Cat) was isolated from human RNA by RT-PCR; made in house; host or cells: Sf9 insect cells (baculovirus, Gateway / Bac-to-Bac)
From the text: The cDNA of PDE4B catalytic domain (hereinafter abbreviated as Cat) was isolated from human RNA by RT-PCR. The isolated cDNA fragments were inserted into Sf9 insect cells using Gateway system (product of Invitrogen Corporation) and Bac-to-Bac (registered trademark) Baculovirus Expression system (product of Invitrogen Corporation) to express a target PDE protein. The recombinant PDE4Bcat was purified from the culture supernatants or cell extracts of Sf9 cells expressing high levels of the PDE protein by ion exchange chromatography and was used for the following experiments.
A 4 mmol/L solution of each test compound was serially diluted four-fold with a 15% DMSO solution to prepare solutions with concentrations of 15 nmol/L to 4 mmol/L (the final concentrations used in the experiments were 1.5 nmol/L to 400 μmol/L). 10 μL of the prepared test compound solutions, [3H] cAMP diluted with a buffer solution (40 mmol/L Tris-HCl (pH: 7.4), 10 mmol/L MgCl2), and 40 μL of the recombinant human PDE protein (2×10^−6 units, 1 unit is defined as the amount of PDE that breaks down 1 μmol/L of cAMP in one minute under the conditions of a pH of 7.5 and 30° C.) were added to a 96-well plate. The mixtures were reacted at 30° C. for 20 minutes. Then, the resultant mixtures were reacted at 65° C. for 2 minutes. Subsequently, 25 μL of 1 mg/mL5′-nucleotidase (Crotalus atrox venom, product of Sigma) was added to the mixtures, and the mixtures were reacted at 30° C. for 10 minutes. After completion of the reaction, 200 μL of a solution of Dowex (300 mg/mL Dowex 1×8-400 (product of Sigma Aldrich), 33% ethanol) was added to the mixtures, and the mixtures were shaken at 4° C. for 20 minutes. Subsequently, 200 μL of MicroScint 20 (product of Packard) was added to the mixtures, and measurement was performed using a scintillation counter (Topcount, product of Packard). IC50 values were calculated using Graph Pad Prism v3.03 (product of GraphPad Software). When […], the results were represented by “+.” When 0.1 μmol/L>the IC50 value, the results were represented by “++.”

T1 sequence (Q07343 330-659 limits assumed): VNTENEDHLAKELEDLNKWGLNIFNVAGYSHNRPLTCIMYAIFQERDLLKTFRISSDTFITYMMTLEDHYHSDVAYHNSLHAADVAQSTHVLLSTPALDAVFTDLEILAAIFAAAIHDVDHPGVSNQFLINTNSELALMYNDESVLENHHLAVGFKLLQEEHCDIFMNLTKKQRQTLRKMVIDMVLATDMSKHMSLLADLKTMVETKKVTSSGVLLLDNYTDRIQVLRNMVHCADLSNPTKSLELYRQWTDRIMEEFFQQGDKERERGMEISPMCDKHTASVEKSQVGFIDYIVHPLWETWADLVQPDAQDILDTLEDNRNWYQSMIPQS

Compound | Inhibition ratio [1] | inhibition in vivo at 0.1 mg/kg [2] [%] | IC50 [3] [µmol/L] | inhibition in vivo at 0.3 mg/kg [2] [%]
CCc1cc2c(C(=O)Nc3c(Cl)cncc3Cl)ccc(OC)n2n1 [Example 9, 2-Ethyl-7-methoxypyrazolo[1,5-a]pyridine-4-carboxylic acid (3,5-dichloropyridin-4-yl)amide] | + (When 60%>the inhibition ratio≧50%, the results were represented by “+.”) | 70 to 90 | < 0.1 | –
COc1ccc(C(=O)Nc2c(Cl)cncc2Cl)c2cc(C(F)(F)F)nn12 [Example 16, 7-Methoxy-2-trifluoromethylpyrazolo[1,5-a]pyridine-4-carboxylic acid (3,5-dichloropyridin-4-yl)amide] | ++ (When the inhibition ratio≧60%, the results were represented by “++.”) | ≥ 90 | < 0.1 | –
COc1ccc(C(=O)Nc2c(Cl)cncc2Cl)c2cc(C(C)C)nn12 [Example 32, 2-Isopropyl-7-methoxypyrazolo[1,5-a]pyridine-4-carboxylic acid (3,5-dichloropyridin-4-yl)amide] | – | 70 to 90 | 0.1 to 10 | –
COc1ccc(C(=O)Nc2c(Cl)c[n+](O)cc2Cl)c2cc(C(C)C)nn12 [Example 33, 2-Isopropyl-7-methoxypyrazolo[1,5-a]pyridine-4-carboxylic acid (3,5-dichloro-1-oxypyridin-4-yl)amide] | – | ≥ 90 | < 0.1 | –
COc1ccc(C(=O)Nc2c(Cl)cncc2Cl)c2ccnn12 [Example 40, 7-Methoxypyrazolo[1,5-a]pyridine-4-carboxylic acid (3,5-dichloropyridin-4-yl)amide] | – | – | < 0.1 | 70 to 90
COc1ccc(C(=O)Nc2c(Cl)c[n+]([O-])cc2Cl)c2ccnn12 [Example 41, 7-Methoxypyrazolo[1,5-a]pyridine-4-carboxylic acid (3,5-dichloro-1-oxypyridin-4-yl)amide] | – | – | < 0.1 | 30 to 70
COc1ccc(C(=O)Nc2c(Cl)cncc2Cl)c2cc(C(F)F)nn12 [Example 58, 2-Difluoromethyl-7-methoxy-pyrazolo[1,5-a]pyridine-4-carboxylic acid (3,5-dichloropyridin-4-yl)amide] | – | ≥ 90 | < 0.1 | –
COCc1cc2c(C(=O)Nc3c(Cl)cncc3Cl)ccc(OC)n2n1 [Example 76, 7-Methoxy-2-methoxymethylpyrazolo[1,5-a]pyridine-4-carboxylic acid (3,5-dichloropyridin-4-yl)amide] | – | 70 to 90 | < 0.1 | –
COCc1cc2c(C(=O)Nc3c(Cl)c[n+](O)cc3Cl)ccc(OC)n2n1 [Example 77, 7-Methoxy-2-methoxymethylpyrazolo[1,5-a]pyridine-4-carboxylic acid (3,5-dichloro-1-oxypyridin-4-yl)amide] | – | – | < 0.1 | 30 to 70
COc1ccc(C(=O)Nc2c(Cl)cncc2Cl)c2cc(C=O)nn12 [Example 78, 2-Formyl-7-methoxypyrazolo[1,5-a]pyridine-4-carboxylic acid (3,5-dichloropyridin-4-yl)amide] | – | – | < 0.1 | 70 to 90
COc1ccc(C(=O)Nc2c(Cl)cncc2Cl)c2cc(C(C)O)nn12 (stereo not shown) [Example 79, 2-(1-Hydroxyethyl)-7-methoxypyrazolo[1,5-a]pyridine-4-carboxyl ic acid (3,5-dichloropyridin-4-yl)amide] | – | 30 to 70 | < 0.1 | –
COc1ccc(C(=O)Nc2c(Cl)cncc2Cl)c2cc(C(C)=O)nn12 [Example 80, 2-Acetyl-7-methoxypyrazolo[1,5-a]pyridine-4-carboxylic acid (3,5-dichloropyridin-4-yl)amide] | – | 30 to 70 | < 0.1 | –
COc1ccc(C(=O)Nc2c(Cl)cncc2Cl)c2cc(C=NO)nn12 [Example 82, 2-(Hydroxyiminomethy)-7-methoxypyrazolo[1,5-a]pyridine-4-carboxylic acid (3,5-dichloropyridin-4-yl)amide] | – | 70 to 90 | < 0.1 | –
COc1ccc(C(=O)Nc2c(Cl)cncc2Cl)c2cc(C#N)nn12 [Example 83, 2-Cyano-7-methoxypyrazolo[1,5-a]pyridine-4-carboxylic acid (3,5-dichloropyridin-4-yl)amide] | – | ≥ 90 | < 0.1 | –
CSc1ccc(C(=O)Nc2c(Cl)cncc2Cl)c2cc(C(F)(F)F)nn12 [Example 92, 7-Methylsulfanyl-2-trifluoromethylpyrazolo[1,5-a]pyridine-4-carboxylic acid (3,5-dichloropyridin-4-yl)amide] | – | 30 to 70 | < 0.1 | –
O=C(Nc1c(Cl)cncc1Cl)c1ccc(CO)n2nc(C(F)(F)F)cc12 [Example 105, 7-Hydroxymethyl-2-trifluoromethylpyrazolo[1,5-a]pyridine-4-carboxylic acid (3,5-dichloropyridin-4-yl)amide] | – | ≥ 90 | < 0.1 | –
CC(O)c1ccc(C(=O)Nc2c(Cl)cncc2Cl)c2cc(C(F)(F)F)nn12 (stereo not shown) [Example 107, 7-(1-Hydroxyethyl)-2-trifluoromethylpyrazolo[1,5-a]pyridine-4-carboxylic acid (3,5-dichloropyridin-4-yl)amide] | + (When 60%>the inhibition ratio≧50%, the results were represented by “+.”) | 70 to 90 | < 0.1 | –
